As a reminder, the IC50 is the concentration that gives 50% inhibition. Read a low IC50 as inhibition by little substance.

Experimental findings from PMC13165350, “In Vitro Antiproliferative Effects of Benzothiazole-Based Aminosquaraine Dyes Against Cancer Cell Lines” (Molecules, 2026) are described below.

Structures are written as SMILES.

This experiment has as its system MCF-7 cells (breast adenocarcinoma). The experiment in a line: cells. Type of experiment: cell-based. Particulars: Homo sapiens, MCF7; MTT, 72 h, 0.01–50 µM, dark conditions.

Procedure: The cytotoxic effects of the aminosquaraines 1–8 were evaluated in breast (MCF-7 and T47D) and prostate (LNCaP) cancer cell lines using the MTT assay, as previously described [17]. […] Normal human dermal fibroblasts (NHDF) were included as a non-cancer model to assess tumor selectivity.
In a preliminary screening, cells were exposed to a single concentration (30 µM) of each dye for 72 h to assess metabolic activity.
The studied compounds were dissolved in dimethyl sulfoxide to prepare 10 mM stock solutions and stored at 4 °C. Working solutions were prepared from these stocks at the desired concentrations (30 µM for preliminary studies and 0.01, 0.1, 1, 10, 25, and 50 µM for concentration–response studies) by dilution in complete culture medium immediately before each experiment.
Metabolic activity was assessed by quantifying the reduction of 3-(4,5-dimethylthiazol-2-yl)-2,5-diphenyltetrazolium bromide (MTT), according to a previously described procedure [17]. […] Absorbance was recorded at 570 nm using an xMark™ microplate reader (Bio-Rad, Hercules, CA, USA) using Microplate Manager 6.3 software. Cell viability was calculated as a percentage relative to untreated control cells.
Selectivity indices were determined as the ratio between IC50 values obtained in the NHDF cell line and those obtained in the corresponding tumor cell lines.

`O=c1[nH]cc(F)c(=O)[nH]1` [5-FU, 5-fluorouracil] had an IC50 of 1710 nM.
